Measured values reported in PubChem BioAssay (NCI).
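Compound exposure: 48 hours, 5 concentrations, 96-well plates. Definition used: TGI = concentration required for complete inhibition of growth.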

Key:
Assay in all cases: NCI-60 cell line screen, 48 h
HCC-2998 colon = tested on: HCC-2998 colon
HCT-15 colon = tested on: HCT-15 colon
NCI-H522 lung = tested on: NCI-H522 lung
OVCAR-3 ovarian = tested on: OVCAR-3 ovarian
SF-268 CNS = tested on: SF-268 CNS
SF-295 CNS = tested on: SF-295 CNS
SK-MEL-2 melanoma = tested on: SK-MEL-2 melanoma
UO-31 renal = tested on: UO-31 renal
NCI-H23 lung = tested on: NCI-H23 lung
RPMI-8226 leukemia = tested on: RPMI-8226 leukemia
MDA-N = tested on: MDA-N

| Structure (SMILES) | TGI (HCC-2998 colon) [µM] | TGI (HCT-15 colon) [µM] | TGI (NCI-H522 lung) [µM] | TGI (OVCAR-3 ovarian) [µM] | TGI (SF-268 CNS) [µM] | TGI (SF-295 CNS) [µM] | TGI (SK-MEL-2 melanoma) [µM] | TGI (UO-31 renal) [µM] | TGI (NCI-H23 lung) [µM] | TGI (RPMI-8226 leukemia) [µM] | TGI (MDA-N) [µM] |
| --- | --- | --- | --- | --- | --- | --- | --- | --- | --- | --- | --- |
| CC12O[C@H](c3ccccc3)[C@H](c3ccccc3)N1C(=O)C1(C(=O)OCc3ccccc3)CC12 (stereo partly drawn) | > 100 | > 100 | > 100 | > 100 | > 100 | > 100 | > 100 | > 100 |  |  |  |
| Cc1cccc(-c2cc(=O)c3ccc(C)nc3[nH]2)c1 | 27.4 | > 35.2 | 0.75 | 0.503 | > 100 | 14.9 | > 100 | > 100 | > 37.9 | 23.2 |  |
| CC(=O)Oc1ccn2nc(C)c(Br)c2c1Br | 49.9 | 33.6 | 36.8 | 33.4 | > 90.1 | > 89.3 | > 67 | > 29.6 | 34.8 |  | 32.6 |
| CC(C)CCCC(C)[C@H]1CC[C@H]2[C@@H]3CC[C@H]4C[C@@H](CCC=C(c5cc(Cl)c(O)c(C(=O)OC(C)(C)C)c5)c5cc(Cl)c(O)c(C(=O)OC(C)(C)C)c5)CC[C@]4(C)[C@H]3CC[C@]12C (stereo partly drawn) | > 50 | > 50 |  | > 50 | > 50 | > 50 | > 50 |  | > 50 | > 50 | > 50 |
| Cc1ccc(NC(=O)CC(=O)n2nc(-c3ccccc3)c(N=Nc3ccc(Cl)cc3)c2-c2ccccc2)cc1 | > 100 | > 100 |  | > 100 | > 100 | > 100 | > 100 | > 100 | > 100 | 47.8 |  |
| CC1(C)OCC2OC3([C@H](O)CCO)OC(C)(C)OC3C2O1 (stereo partly drawn) | > 100 | > 100 |  | > 100 |  | > 100 | > 100 | > 100 | > 100 | > 100 | > 100 |
| Cc1cc(N(CCC#N)CCC#N)ccc1/C=C(\NC(=O)/C=C/c1ccccc1)NC(=O)Nc1ccc(Cl)cc1 | > 100 | > 100 |  | > 100 | > 100 | > 100 | > 100 | > 100 | > 100 | > 100 |  |
| C[C@@]12CC[C@H]3[C@@H]4CCC(=O)N[C@@]4(C)CC[C@@H]3[C@@]1(C)CC[C@H](OC(=O)Cc1ccc(N(CCCl)CCCl)cc1)C2 | 31.2 | 36.1 | 34.4 | 34.6 | 31.9 | 31.5 | > 100 | 33.3 | 30.3 | 56 |  |
| Cc1ccc(C(=O)CC(Cl)=C(Cl)Cl)cc1 |  | > 100 | > 100 | > 100 | > 100 | > 100 | > 100 | > 100 | > 100 | 74.3 |  |
| c1ccc2c(c1)CCc1c-2n(CCN2CCCCC2)c2ccccc12 | 26.4 | 22.9 | 27.1 | 31.1 | 49.5 | 30.8 | 30.2 | 23.7 | 32.1 | 40.3 |  |
| O=[N+]([O-])c1ccc(NC2OCC(O)C(O)C2O)cc1 (stereo not drawn) | > 100 | > 100 | > 100 | > 100 | > 100 | > 100 | > 100 | > 100 | > 100 | > 100 |  |
